Measurements taken from US5098933A, “Pharmaceutically useful Michael addition products of unsaturated aldehydes and ketones and ascorbic acid” (Theracel Corporation, priority 1990, dated 1992).
Like-named read-outs stand apart in the source and are kept apart here.

Columns and labels:
[1] = tested on: T- and B- lymphocyte isolated from mouse spleens; test: Lymphocyte Blastogenesis Assay; format: in vivo; settings: for RPMI CONTROL: no mitogen (Table 7); for activation at 25 mg/kg / activation at 50 mg/kg / activation at 100 mg/kg / activation at 12.5 mg/kg / activation at 200 mg/kg: Mus musculus, Lymphocyte; for RPMI: no mitogen (Table 8)
Source text: This assay measures the ability of the compound under test to affect DNA synthesis and mitosis of T- and B- lymphocyte isolated from mouse spleens.
Mitogens are substances which stimulate DNA synthesis and mitosis. The mitogens used in these studies were phytohemaglutinin (PHA) which is isolated from the red kidney bean and concanavalin-A (Con-A) which is isolated form the jack bean. Con-A binds to specific receptors (glycoproteins) containing mannosyl or glycosyl moieties and stimulates all murine T-cells to synthesize DNA, divide, and release lymphokines. Con-A in a soluble form allows distinction between T- and B-cells in the mouse, because although both T- and B-cells can bind 106 molecules of Con-A per cell, only T-cells are stimulated when this lectin is presented in a soluble form. PHA stimulates only subpopulations, T-2 cells, of T-cells in the mouse. Also, Con-A stimulates the production of cytokines such as Interleukin-2 (IL-2). In humans, both T- and B-cells are probably stimulated. The activation of B-cells by PHA may be indirect and mediated by the release of soluble mediators from PHA-activated T-cells.
The lymphocyte blastogenesis test is a method to assess the ability of immunocompetent T- or B-cells to respond to a polyclonal mitogen (i.e. PHA or Con-A) or a specific antigen. It may be performed on lymphocytes obtained from mice treated with immunostimulators in vivo or the entire assay can be performed in vitro. The assay as described below uses minimal doses of polyclonal mitogens to induce blastogenesis (proliferation measure by DNA synthesis), in order to be able to assess the phenomena of amplification.
1. Sacrifice two mice/experimental group by cervical dislocation.
14. […]
15. Include in the experiment a control plate which contains the same cells group as above, but receive a 0.1 ml of media instead of mitogen.
18. After 48 hours all wells receive 0.025 mls of a 0.4 microcurie/ml solution of C-14 methyl thymidine and incubate at 37 C, 5% CO-2 for 18 hours.

[2] = tested on: plaque forming cells, antibody specific to sheep red blood cells; test: Jerne Hemolytic Plaque Assay; format: in vivo, mice
Description: This assay measures the IgM or IgG isotypes of specific antibody produced by antigen used to immunize the mice. […] The direct assay detects IgM and the indirect assay detects IgG-specific antibody.
Washed spleen cells are added to an agarose (FMC, Rockland, Me.) preparation containing sheep red blood cells (SRBC) and guinea pig complement. A drop of this mixture is transferred to a small petri dish; a cover slip is then placed over the drop to flatten it. The agarose prep is allowed to solidify. Then, the dishes are placed in a small humidified changer inside a CO-2 incubator overnight.
Small pinpoint cleared areas (plaques) will be observed under the cover slip. The cleared areas are caused by antibody, specific to the SRBC's being released by stimulated spleen cells and in conjunction with the complement, lyse surrounding SRBC's. These plaque forming cells (PFC's) are counted, and calculations are performed to obtain PFC's per […] spleen cells.
1. Spleens are harvested from mice according to a standard procedure and adjusted to a final concentration of 20% in […].
14. Count and record the number of hemolytic plaques per plate. Average plaque counts between the duplicate sets. Multiply the average number of plaques per group by 2.5 to obtain the number of plaque forming cells per million spleen cells.

## O=C1CCCC(C2(O)C(=O)OC3C(O)COC32O)C1 (single isomer, unassigned) [KCBL-A]
[1]; 12.5 mg/kg (Table 7)
  CON-A 6 ug/ml: 3412.0 counts per minute
  PHA 14 ug/ml: 1450.0 counts per minute
[1]; 12.5 mg/kg
  RPMI CONTROL: 94.0 counts per minute
[1]; 25.0 mg/kg (Table 7)
  CON-A 6 ug/ml: 5657.0 counts per minute
  PHA 14 ug/ml: 2178.0 counts per minute
[1]; 25.0 mg/kg
  RPMI CONTROL: 77.0 counts per minute
[1]; 50.0 mg/kg (Table 7)
  CON-A 6 ug/ml: 5059.0 counts per minute
  PHA 14 ug/ml: 2369.0 counts per minute
[1]; 50.0 mg/kg
  RPMI CONTROL: 50.0 counts per minute
[1]; 100.0 mg/kg (Table 7)
  CON-A 6 ug/ml: 4104.0 counts per minute
  PHA 14 ug/ml: 2384.0 counts per minute
[1]; 100.0 mg/kg
  RPMI CONTROL: 76.0 counts per minute
[1]; 25.0 mg/kg (Table 7), read-out: % INCREASE (CON-A 6 ug/ml)
  activation at 25 mg/kg: 56.6%
[1]; 25.0 mg/kg (Table 7), read-out: % INCREASE (PHA 14 ug/ml)
  activation at 25 mg/kg: 26.1%
[1]; 50.0 mg/kg (Table 7), read-out: % INCREASE (CON-A 6 ug/ml)
  activation at 50 mg/kg: 40%
[1]; 50.0 mg/kg (Table 7), read-out: % INCREASE (PHA 14 ug/ml)
  activation at 50 mg/kg: 37.1%
[1]; 100.0 mg/kg (Table 7), read-out: % INCREASE (CON-A 6 ug/ml)
  activation at 100 mg/kg: 13.6%
[1]; 100.0 mg/kg (Table 7), read-out: % INCREASE (PHA 14 ug/ml)
  activation at 100 mg/kg: 38%
[2]; 12.5 mg/ml (Table 10)
  % INCREASE: 100%
  PFC: 112.00 PFC/1 MILLION CELLS
[2]; 25 mg/kg (Table 10)
  % INCREASE: 104%
  PFC: 115.00 PFC/1 MILLION CELLS
[2]; 50 mg/kg (Table 10)
  % INCREASE: 193%
  PFC: 165.00 PFC/1 MILLION CELLS
[2]; 100 mg/kg (Table 10)
  % INCREASE: 318%
  PFC: 235.00 PFC/1 MILLION CELLS
[2]; 200 mg/kg (Table 10)
  % INCREASE: 215%
  PFC: 177.50 PFC/1 MILLION CELLS

## O=C1CCCC(C2(O)C(=O)OC3C(O)COC32O)C1 (single isomer, unassigned) [KCBL-B]
[1]; 12.5 mg/kg (Table 8)
  CON-A 2.25 ug/ml: 865.6 counts per minute
  PHA 14.0 ug/ml: 1733.1 counts per minute
[1]; 12.5 mg/kg
  RPMI: 67.6 counts per minute
[1]; 25 mg/kg (Table 8)
  CON-A 2.25 ug/ml: 1309.6 counts per minute
  PHA 14.0 ug/ml: 3512.1 counts per minute
[1]; 25 mg/kg
  RPMI: 84.3 counts per minute
[1]; 50 mg/kg (Table 8)
  CON-A 2.25 ug/ml: 1130.6 counts per minute
  PHA 14.0 ug/ml: 2540.7 counts per minute
[1]; 50 mg/kg
  RPMI: 56.2 counts per minute
[1]; 100 mg/kg (Table 8)
  CON-A 2.25 ug/ml: 1736.7 counts per minute
  PHA 14.0 ug/ml: 3515.4 counts per minute
[1]; 100 mg/kg
  RPMI: 84.9 counts per minute
[1]; 200 mg/kg (Table 8)
  CON-A 2.25 ug/ml: 2008.0 counts per minute
  PHA 14.0 ug/ml: 3305.8 counts per minute
[1]; 200 mg/kg
  RPMI: 52.0 counts per minute
[1]; 12.5 mg/kg (Table 8), read-out: % INCREASE (CON-A 2.25 ug/ml)
  activation at 12.5 mg/kg: 123%
[1]; 12.5 mg/kg (Table 8), read-out: % INCREASE (PHA 14.0 ug/ml)
  activation at 12.5 mg/kg: 12.1%
[1]; 25 mg/kg (Table 8), read-out: % INCREASE (CON-A 2.25 ug/ml)
  activation at 25 mg/kg: 237%
[1]; 25 mg/kg (Table 8), read-out: % INCREASE (PHA 14.0 ug/ml)
  activation at 25 mg/kg: 127%
[1]; 50 mg/kg (Table 8), read-out: % INCREASE (CON-A 2.25 ug/ml)
  activation at 50 mg/kg: 191%
[1]; 50 mg/kg (Table 8), read-out: % INCREASE (PHA 14.0 ug/ml)
  activation at 50 mg/kg: 64.4%
[1]; 100 mg/kg (Table 8), read-out: % INCREASE (CON-A 2.25 ug/ml)
  activation at 100 mg/kg: 347%
[1]; 100 mg/kg (Table 8), read-out: % INCREASE (PHA 14.0 ug/ml)
  activation at 100 mg/kg: 128%
[1]; 200 mg/kg (Table 8), read-out: % INCREASE (CON-A 2.25 ug/ml)
  activation at 200 mg/kg: 418%
[1]; 200 mg/kg (Table 8), read-out: % INCREASE (PHA 14.0 ug/ml)
  activation at 200 mg/kg: 114%
[2]; 25 mg/kg (Table 10)
  % INCREASE: 39%
  PFC: 66.25 PFC/1 MILLION CELLS
[2]; 50 mg/kg (Table 10)
  % INCREASE: 218%
  PFC: 151.25 PFC/1 MILLION CELLS
[2]; 100 mg/kg (Table 10)
  % INCREASE: 232%
  PFC: 157.5 PFC/1 MILLION CELLS
[2]; 200 mg/kg (Table 10)
  % INCREASE: 171%
  PFC: 128.75 PFC/1 MILLION CELLS

## O=C1CCC(C2(O)C(=O)OC3C(O)COC32O)C1 (single isomer, unassigned) [L-KCPBL-A]
[2]; 25 mg/kg (Table 12)
  % INCREASE: 233%
  PFC: 162.5 PFC/1 MILLION CELLS
[2]; 50 mg/kg (Table 12)
  % INCREASE: 151%
  PFC: 122.5 PFC/1 MILLION CELLS
[2]; 100 mg/kg (Table 12)
  % INCREASE: 120%
  PFC: 107.5 PFC/1 MILLION CELLS
[2]; 200 mg/kg (Table 12)
  % INCREASE: 202%
  PFC: 147.5 PFC/1 MILLION CELLS
[2]; vs control
  antibody production / PFC, dose dependence: stimulates T-dependent antibody production, but not in a dose response fashion
